Data set [1] in a line: Volume of distribution in Wistar rat at 2 mg/kg, iv and 5 mg/kg, po. The data set is classed as ADME, organism-based. Conditions: in vivo, read-out: Vdss.
A short description of data set [2]: Bioavailability in Wistar rat at 2 mg/kg, iv and 5 mg/kg, po. The class given is ADME, organism-based. Conditions: in vivo.
The nature of data set [3]: Clearance in Wistar rat at 2 mg/kg, iv and 5 mg/kg, po. Particulars: in vivo. The class given is ADME, organism-based.
Data set [4] relates to Rattus norvegicus. Put plainly: AUC in Wistar rat at 5 mg/kg, po normalized to 1 mg/kg. The class given is ADME, organism-based, Plasma. Particulars: in vivo.
A short description of data set [5]: Cmax in nude mouse xenografted with human LoVo cell at 50 mg/kg, po. The arrangement: dose 50 mg/kg, route oral. Conditions: in vivo. The data set is classed as ADME, organism-based. Background: In xenograft studies the graft and the host belong to different species.
A short description of data set [6]: AUC in nude mouse xenografted with human LoVo cell at 50 mg/kg, po, twice daily. The data set is classed as ADME, organism-based. The arrangement: dose 50 mg/kg. Conditions: in vivo.
A short description of data set [7]: AUC in nude mouse xenografted with human LoVo cell at 100 mg/kg, po. The arrangement: dose 100 mg/kg, route oral. Conditions: in vivo. The data set is classed as ADME, organism-based.
A short description of data set [8]: Half life in rat. Particulars: in vivo. The data set is classed as ADME, organism-based.
Data set [9] is described as follows: AUC in nude mouse xenografted with human LoVo cell at 50 mg/kg, po. The arrangement: dose 50 mg/kg, route oral. Particulars: in vivo. The data set is classed as ADME, organism-based.
Data set [10] in a line: Cmax in nude mouse xenografted with human LoVo cell at 50 mg/kg, po, twice daily. The data set is classed as ADME, organism-based. The arrangement: route oral, dose 50 mg/kg. Particulars: in vivo.
Data set [11] can be described thus: Cmax in nude mouse xenografted with human LoVo cell at 100 mg/kg, po. The class given is ADME, organism-based. The arrangement: dose 100 mg/kg, route oral. Particulars: in vivo.
For data set [12], the system named is Rattus norvegicus. As to the kind of experiment: AUC in Wistar rat at 10 mg/kg, po normalized to 1 mg/kg. The class given is ADME, organism-based, Plasma. Conditions: in vivo.
Data set [13] concerns Mus musculus. As to the kind of experiment: Free drug level in mouse plasma at 50 mg/kg, po at 4 hrs. The data set is classed as ADME, organism-based. The arrangement: dose 50 mg/kg, route oral. Particulars: in vivo.
The subject of data set [14] is Mus musculus. Put plainly: Free drug level in mouse plasma at 50 mg/kg, po at 24 hrs. The data set is classed as ADME, organism-based. The arrangement: dose 50 mg/kg, route oral. Particulars: in vivo.
A short description of data set [15]: Bioavailability in Wistar rat at 2 mg/kg, iv and 10 mg/kg, po. Particulars: in vivo. The data set is classed as ADME, organism-based.
Another data set can be described thus: in vivo. Conditions: Wistar, rat, iv, 2 mg/kg.
Data set [16] deals with Mus musculus. As to the kind of experiment: Free drug level in mouse plasma at 50 mg/kg, po at 6 hrs. The data set is classed as ADME, organism-based. The arrangement: dose 50 mg/kg, route oral. Particulars: in vivo.
Data set [17] has as its system Mus musculus. As to the kind of experiment: Free drug level in mouse plasma at 50 mg/kg, po at 2 hrs. The class given is ADME, organism-based. The arrangement: dose 50 mg/kg, route oral. Particulars: in vivo.
Data set [18] is described as follows: Volume of distribution in Wistar rat at 2 mg/kg, iv and 10 mg/kg, po. The data set is classed as ADME, organism-based. Particulars: in vivo, read-out: Vdss.
The nature of data set [19]: Terminal half life in cancer affected human. Particulars: in vivo, read-out: beta t1/2 (converted). The data set is classed as ADME, organism-based.
Data set [20] is described as follows: Terminal half life in human. The data set is classed as ADME, organism-based. Conditions: in vivo, read-out: beta t1/2 (converted).
Data set [21] is described as follows: Volume of distribution in rat. The data set is classed as ADME, organism-based. Particulars: in vivo.

Each structure is given as a SMILES string.

In general, bioavailability refers to the share of a dose that reaches the circulation, judged against a reference dose that is usually intravenous. Usually pKa stands for the pH at which an ionisable group is half protonated. High values mean a weaker acid or stronger base, low ones a stronger acid or weaker base. As usually defined, the AUC is the area under the concentration-time curve, a measure of exposure. Turning to `COCCN1CCC(Oc2cc3c(Nc4cccc(Cl)c4F)ncnc3cc2OC)CC1`, the Vd in data set [1] came to 1.3 L/kg. This molecule returned a bioavailability in [2] of 30%. The same molecule came in with a clearance in [3] of 11 mL/min/kg. For the same molecule, in the data set “physchem”, the pKa amounted to 8.1. This molecule also yielded an AUC in the data set on Rattus norvegicus [4] of 0.95 µM·h.
Broadly, the Cmax is the highest concentration seen after dosing. Take `COc1cc2ncnc(Nc3cccc(Cl)c3F)c2cc1OC1CCN(S(C)(=O)=O)CC1`: the maximum concentration (Cmax) in data set [5] is 30.6 µM; in data set [10], 23.9 µM; in data set [11] it was 36.8 µM. Moreover, the area under the curve (AUC) came out at 286 µM·h in data set [6], 450 µM·h in data set [7], 225 µM·h in [9] and 1.18 µM·h with Rattus norvegicus [4]. Further, the Vd in data set [1] is 1.5 L/kg. The bioavailability in [2] amounted to 45%. In data set [8], this molecule showed a half-life of 96 min. The molecule also came in with a clearance in data set [3] of 13 mL/min/kg.
With `COc1cc2ncnc(Nc3cc(Cl)ccc3F)c2cc1OCCCN1CCOCC1`, the area under the curve (AUC) in the data set on Rattus norvegicus [12] was 1.64 µM·h. Further, the Cp in the data set with Mus musculus [13] worked out at 0.36 µM; with Mus musculus [14], 0 µM; in the data set on Mus musculus [16] it was 0.17 µM; with Mus musculus [17], 0.3 µM. The same molecule returned a bioavailability in data set [15] of 71%. For the same molecule, the clearance in the data set “in vivo” was 16 mL/min/kg. Moreover, the Vd in [18] amounted to 3.5 L/kg.
As to `COCCN1CCC(Oc2cc3c(Nc4cc(Cl)ccc4F)ncnc3cc2OC)CC1`, the pKa in “physchem” was found to be 8.1.
`COc1cc2ncnc(Nc3cc(Cl)ccc3F)c2cc1OC1CCN(C)CC1` registered a pKa in the data set “physchem” of 8.8.
On the same count and under the same terms, the figure for `COc1cc2ncnc(Nc3cccc(Cl)c3F)c2cc1OCC1CCN(C)CC1` is 9.3.
For `COc1cc2ncnc(Nc3ccc(F)c(Cl)c3)c2cc1OCC1CCN(C)CC1`, the pKa in the data set “physchem” was 9.3.
Consider `COc1cc2ncnc(Nc3cc(Cl)ccc3F)c2cc1OCC1CCN(C)CC1`, for which, in the data set “physchem”, the pKa amounted to 9.3.
`COc1cc2c(Nc3ccc(Br)cc3F)ncnc2cc1OCC1CCN(C)CC1` [VANDETANIB] displayed a pKa in the data set “physchem” of 9.3.
Consider `COc1cc2ncnc(Nc3cccc(Cl)c3F)c2cc1OC1CCN(CC(N)=O)CC1`, for which the Vd in data set [1] is 2.7 L/kg. The bioavailability in [2] came to 27%. Also, the clearance in [3] turned out to be 16 mL/min/kg. This molecule also yielded a pKa in “physchem” of 6.7. The AUC with Rattus norvegicus [4] turned out to be 0.59 µM·h.
For `COc1cc2ncnc(Nc3cccc(Cl)c3F)c2cc1OC1CCN(C)CC1` the same measures were 20.8 L/kg, 74%, 129 mL/min/kg, 8.8 and 0.08 µM·h.
For the molecule `COc1cc2ncnc(Nc3cc(Cl)ccc3F)c2cc1OC1CCN(CC(N)=O)CC1`, the pKa in the data set “physchem” came to 6.7.
Take `COc1cc2ncnc(Nc3ccc(F)c(Cl)c3)c2cc1OCCCN1CCOCC1` [GEFITINIB]: the half-life in data set [19] was 2220 min; in [8], 420 min; in data set [20], 1680 min. The results for the maximum concentration (Cmax) in [5] and in data set [11] were 8.1 µM and 6.7 µM, respectively. The values for the area under the curve (AUC) (in the data set on Rattus norvegicus [12]; in data set [7]; in data set [9]) were 0.32 µM·h, 85.9 µM·h and 78.7 µM·h, respectively. The Cp turned out to be 0.13 µM with Mus musculus [13], 0.01 µM in the data set with Mus musculus [14], 0.15 µM in the data set with Mus musculus [16] and 0.26 µM with Mus musculus [17]. Further, the Vd in [21] and in [18] was 5.8 L/kg throughout. In addition, in data set [15], the bioavailability amounted to 56%.
In the data set with Rattus norvegicus [12], `COc1cc2ncnc(Nc3cccc(Cl)c3F)c2cc1OCCCN1CCOCC1` had an exposure (AUC) of 0.94 µM·h. The Cp came out at 0.68 µM with Mus musculus [13], 0.01 µM with Mus musculus [14], 0.41 µM with Mus musculus [16] and 0.43 µM in the data set on Mus musculus [17]. The molecule also registered a bioavailability in [15] of 73%. The molecule further registered a clearance in the data set “in vivo” of 29 mL/min/kg. Also, the Vd in [18] stood at 4.3 L/kg.
For `COc1cc2ncnc(Nc3ccc(F)c(Cl)c3)c2cc1OC1CCN(C)CC1`, the pKa in the data set “physchem” was 8.8.

The values are drawn from ChEMBL document CHEMBL1149481, “Inhibitors of epidermal growth factor receptor tyrosine kinase: optimisation of potency and in vivo pharmacokinetics” (Bioorg Med Chem Lett, 2006).
